Reference: US20230107770A1, “METHOD OF ENHANCING IMMUNOTHERAPY USING ER STRESS PATHWAY INHIBITORS” (H. LEE MOFFITT CANCER CENTER AND RESEARCH INSTITUTE, INC., priority 2020, published 2023)

Assays:
B16 tumors = assay: s.c. B16 melanoma tumor model in mice; type: in vivo
tumor-MDSC [1] = assay: Ex vivo suppression assay: tumor-MDSC co-cultured with primed CFSE-labeled T cells; type: cell-based, mice
Method: CD3^+ T cells were enriched using mouse or human T cell negative selection kits (MagniSort, Invitrogen) from the spleen and lymph nodes of C57BL/6 mice; or from purchased human buffy-coat units (One-Blood, Tampa, Fla.). Purity ranged between 95% and 99% as tested by flow cytometry. For antigen-specific priming studies, CD8^+ T cells were enriched using negative selection kits from the spleens of OT-I mice previously activated with OVA257-264 (SIINFEKL) for 48 hours. Tumor-MDSC were isolated from cellular suspensions of digested tumors followed by positive selection (MojoSort Streptavidin Nanobeads, Biolegend) using anti-Gr1 (Clone RB6-8C5, eBioscience) or anti-CD11b-biotinylated antibodies (Clone M1/70, StemCell Technologies, Vancouver). Also, M-MDSC (CD11b^+Gr1^+Ly6G^lowLy6C^high), PMN-MDSC (CD11b^+Gr1^+Ly6G^+Ly6C^low), macrophages (CD11b^+Gr1^negF4/80^+CD11c^neg), and myeloid DCs (CD11b^+Gr1^negF4/80^negCD11c^+) were sorted from tumors in a FACSAriaII (BD Biosciences).
(§1) Murine BM-MDSC (ratio 1:1/8) or tumor-MDSC (ratio 1:1/4) were co-cultured with negatively selected CD3^+ T cells in a 96 well plate bound α-CD3 and α-CD28 (1 μg/ml each, eBioscience) for 3 days. T cell proliferation was assessed with Carboxyfluorescein succinimidyl ester (CFSE) or Cell-trace violet (Invitrogen) dye dilution detected by flow cytometry. For human studies, MDSC were co-cultured with enriched CD3^+ T cells activated with soluble α-CD3 (1 μg/ml, clone OKT3) and α-CD28 (0.5 μg/ml, clone L293) for 3 days in a 96 well plate bound with goat anti-mouse IgG (10 μg/ml). Results are expressed as percentage of proliferating T cells, determined by the dilution of fluorescence compared with non-stimulated T cells.

CD8+ TILs = assay: Flow cytometry of tumor-infiltrating CD8+ T cells from treated mice; type: in vivo
Method: All analysis was performed using FlowJo version 11 software.

[2] = Blood glucose and pancreatic islets in B16-bearing mice; type: in vivo; details: B16-bearing mice treated for a week; GSK2606414 25 mg/kg or AMG-44 12 mg/kg; day 17
Excerpt: Hematoxylin and Eosin (H&E) stained slides were scanned in an Aperio AT2 whole slide scanner (Leica Biosystems Inc.) equipped with a 20×0.7NA objective lens Images were created at 0.5 micron per pixel resolution and imported into Definiens Tissue Studio software v4.7 (Definiens AG) for analysis. Islets were found using a semi-automated segmentation process. First an automatic segmentation was applied to the image to create contour lines around objects within the image. Objects that contained islets were classified as such and remaining objects were classified as non-islet tissue. Next, adjacent objects of the same classification were merged together to clean up the segmentation. Segmented images were analyzed to provide the total area of islets Immunofluorescence for mouse insulin in pancreas tissue sections was performed as we described (Sultan et al., 2017). Labeled samples were scanned with a Zeiss Imager Z2 Upright FL microscope with a 10× objective lens using the tile scan function. Images were created at a
0.65 micron per pixel resolution and imported into the Definiens Tissue Studio software v4.7 (Definiens AG) for islet detection and analysis. Islets were detected using a semi-automated segmentation process. First, an automatic segmentation was applied to the image to detect the tissue. Then, the software was trained to detect islet vs. non-islet tissue within the image. In order to remove false detected islets caused by background staining, detected islets larger than 150,000 square microns and less than 600 square microns were reclassified to non-islet tissue. Segmented images were then analyzed to provide the fluorescent intensity of islets and total tissue area.

[3] = cited from earlier work
murine BM-MDSC = assay: In vitro suppression assay with murine BM-MDSC; type: cell-based, mouse; details: for potential of Thaps-treated Eif2ak3^KO-Tek BM-MDSC to impair T cell proliferation: 3 hours pre-treatment, Resveratrol 100 μM or D,L-Sulphoraphane 20 μM
Method: (§2) Mouse BM-MDSC were generated after culturing BM precursors with GM-CSF and G-CSF (20 ng/ml each) for 4 days. In vitro generated MDSC were treated with either LLC tumor explant supernatants (TES, since day 0) or Thaps (200 nM, for the last 24 hours of culture). Human BM-MDSC were developed after culturing BM or peripheral blood precursors from healthy donors with GM-CSF and IL-6 (10 ng/ml each) for a period of 6 days (Thevenot et al., 2014). To induce UPR activation, MDSC were treated with either supernatants from renal cell carcinoma cells 786-0 (hTES) for 6 days (Rodriguez et al., 2009) or Thaps during the last 24 hours before collection (200 nM). In some experiments, MDSC were pre-incubated for 3 hours with Resveratrol (100 μM, Sigma-Aldrich), D,L-Sulphoraphane (20 μM), AMG-44 (5 μM), or TUDCA (500 nM) before treating with Thaps.
as §1

LLC tumors = assay: s.c. LLC tumor model in mice; type: in vivo
Ifnβ1 mRNA = assay: Quantitative PCR of Ifnβ1 mRNA in MDSC; type: cell-based; details: mice treated with SFRN vs untreated PERK-null mice
Method: Total RNA was isolated from MDSC using TRIzol (Life Technologies). Reverse transcription was performed using Verso cDNA Synthesis Kit (Thermo Scientific). Quantitative PCR reactions were prepared by using Bio-Rad SYBR green master mix and performed on an Applied Biosystems thermocycler (7900 HT) using primers described in Key Resources Table

tumor-MDSC [4] = details: LLC-bearing mice treated with SFRN
Method: For surface staining, cells were labelled with the appropriate antibodies in the presence of Fc blocker. For intracellular staining, surface-labeled cells were fixed with Cytofix/Cytoperm™ Solution (BD Biosciences), washed in Perm/Wash™ 1× solution, and labelled with intracellular antibodies. Cells were then washed in Perm/Wash™ 1× and PBS. Live vs. dead cell discrimination was performed prior to antibody labeling by Zombie Fixable Viability dye (Biolegend). Ex vivo intracellular staining for IL-12 and TNFα was performed on isolated cells after stimulation for 6 hours with LPS (1 μg/ml, Sigma Aldrich) in the presence of Golgi stop (0.8 μl/ml, BD Biosciences). For IFNγ staining, cells were incubated for 5 hours with phorbol myristate acetate (PMA, 750 ng/mL, Sigma Aldrich) and ionomycin (50 μg/mL, Sigma-Aldrich) in the presence and Golgi stop (0.8 μl/ml). For ER-tracker and Mitotracker staining, cells were probed with 100 nM of ER tracker green or 200 nM of Mitotracker green (Invitrogen) and then stained for surface markers. For Mitochondrial membrane potential, cells were stained with JC-1 flow cytometry assay kit (Cayman chemicals) followed by surface markers staining. ROS were detected by DCFDA (10 μM) or Dihydroethidium (DHE, 10 μM). Data acquisition was performed in a CytoFLEX II (Beckman Coulter) or LSRII (BD Biosciences). All analysis was performed using FlowJo version 11 software.

tumor-MDSC [5] = details: tumor-bearing Eif2ak3^KO-Lyz2 mice treated with SFRN vs untreated or Eif2ak3^Flox
Method: Oxygen consumption rate (OCR) through mitochondrial stress test and extracellular acidification rate (ECAR) by glycolysis stress profile were measured using a XF96 extracellular flux analyzer (Seahorse Bioscience). MDSC were plated onto CellTak pre-coated wells (1×10^5 cells/well in triplicate), and subjected to mitochondrial stress and glycolysis stress protocols using specific non-buffered XF base mediums. For OCR, cells were analyzed under basal conditions and in response to 2 μM oligomycin, 2 μM fluorocarbonyl-cyanide-phenylhydrazone (FCCP), and 0.5 μM rotenone. For ECAR, cells were plated in XF media lacking glucose and monitored under basal conditions and in response to 10 mM glucose, 10 μM oligomycin, and 100 mM 2-Deoxy-D-glucose (2-DG). Final values were obtained after protein normalization among the conditions.

human BM-MDSC = assay: In vitro suppression assay with human BM-MDSC; type: cell-based
Method: as §2
Murine BM-MDSC (ratio 1:1/8) or tumor-MDSC (ratio 1:1/4) were co-cultured with negatively selected CD3^+ T cells in a 96 well plate bound α-CD3 and α-CD28 (1 μg/ml each, eBioscience) for 3 days. T cell proliferation was assessed with Carboxyfluorescein succinimidyl ester (CFSE) or Cell-trace violet (Invitrogen) dye dilution detected by flow cytometry. […] Results are expressed as percentage of proliferating T cells, determined by the dilution of fluorescence compared with non-stimulated T cells.

Arginase I = assay: Immunoblot of Arginase I in tumor-MDSC; type: cell-based; details: mice treated with TUDCA vs vehicle
Excerpt: (§3) Equal protein amounts of total and nuclear cell lysates were electrophoresed in 8 or 10% Tris-Glycine gels (Novex-Invitrogen), transferred to PVDF membranes by iBlot™ Gel Transfer Device (ThermoFisher), and blotted with the corresponding primary and secondary antibodies described in Key Resources Table. For nuclear fraction isolation, cells were lysed using NE-PER Nuclear and Cytoplasmic extraction kit (ThermoFisher). Membrane-bound immune complexes were detected by ChemiDoc™ Imaging System (Bio-Rad, #17001401).

PERK = assay: Immunoblot of PERK and phospho-PERK in MDSC; type: cell-based, mice
Excerpt: as §3

IRE1α = assay: Immunoblot of IRE1α and phospho-IRE1α in MDSC; type: cell-based, mice
Excerpt: as §3

[6] = tested on: tumor-MDSC from Pan02-OVA-ZsGreen tumors; assay: Cross-presentation by tumor-MDSC from Pan02-OVA-ZsGreen tumors; type: cell-based; details: TUDCA-treated mice bearing Pan02-OVA-ZsGreen tumors
Method: For antigen loading experiments, MDSC were sorted from LLC tumors and then pulsed with 1 μg/ml complete ovalbumin (OVA). After 16 hours, cells were washed twice and 2.5×10^4 MDSC co-cultured with 1×10^5 CFSE-labeled naïve CD8^+ T cells from spleens of OT-I mice (ratio 0.25:1). Positive controls included co-cultures of OT-I T cells with GM-CSF plus IL-4-derived BM-DCs loaded with 1 μg/ml complete OVA. For TME cross-priming assays, 1.25×10^4 MDSC from Pan02-Ova-ZsGreen tumors were co-cultured with 5×10^4 naïve CD8^+ T cells (1/4:1) from spleens of OT-I mice and labelled with Cell-trace violet. Positive control wells included OT-I T cells co-cultured with GM-CSF plus IL-4-derived BM-DCs loaded with 1 μg/ml OVA257-264 peptide. T cell proliferation was measured after 3 days of co-culture.

[7] = LLC, SFRN 25 mg/kg i.p., 3 days per week
[8] = mice treated with TUDCA vs controls
[9] = LLC-bearing mice, Thaps 100 μg/kg i.p. vs vehicle
[10] = BM-MDSC, Thaps 200 nM, last 24 hours

Cn1cc(-c2ccc3c(c2)CCN3C(=O)Cc2cccc(C(F)(F)F)c2)c2c(N)ncnc21 [GSK-2606414]
tumor growth (B16 tumors; B16-bearing mice, GSK-2606414 25 mg/kg i.p. daily vs vehicle): Delayed tumor growth
tumor growth (B16 tumors; B16, daily i.p. GSK2606414 25 mg/kg or AMG-44 12 mg/kg from day 7): delayed tumor growth
immunoinhibitory activity of MDSC (tumor-MDSC [1]; MDSC from tumors of GSK-2606414 treated B16-bearing mice): lower immunoinhibitory activity of MDSC
frequency of IFNγ-producing CD8+ T cells in tumors (CD8+ TILs; B16, GSK2606414 25 mg/kg or AMG-44 12 mg/kg, 17 days post-tumor injection): amplified the frequency of IFNγ-producing CD8^+ T cells in tumors
glucose levels in the serum [2]: failed to show alterations in glucose levels
hyperglycemia at high doses ([3]; 150 mg/kg, orally twice a day, previous studies): induced hyperglycemia
limitation for therapeutic use ([3]; Yu et al., 2015): induction of hyperglycemia as a result of pancreatic islet degeneration

Oc1ccc(C=Cc2cc(O)cc(O)c2)cc1 [Resveratrol]
potential of Thaps-treated Eif2ak3^KO-Tek BM-MDSC to impair T cell proliferation (murine BM-MDSC): partially restored the potential

C[S+]([O-])CCCCN=C=S (stereo not drawn) [SFRN, Sulforaphane]
anti-tumor effects found in Eif2ak3^KO-Lyz2 mice (LLC tumors; [7]): disabled the anti-tumor effects
tumor progression in Eif2ak3^Flox mice (LLC tumors; [7]): delaying tumor progression
ROS levels and immunoregulatory potential of control MDSC (tumor-MDSC [1]; LLC-bearing Eif2ak3^Flox mice treated with SFRN): without affecting controls
immunoregulatory potential of tumor Eif2ak3^KO-Lyz2 MDSC (tumor-MDSC [1]; LLC-bearing mice treated with SFRN, 1:1/4): restored the immunoregulatory potential
potential of Thaps-treated Eif2ak3^KO-Tek BM-MDSC to impair T cell proliferation (murine BM-MDSC): partially restored the potential
Ifnβ1 mRNA in tumor-MDSC from Eif2ak3^KO-Lyz2 mice (Ifnβ1 mRNA): reduced Ifnβ1 mRNA levels
ROS levels in tumor Eif2ak3^KO-Lyz2 MDSC (tumor-MDSC [4]): reduced ROS levels
OCR of tumor-MDSC (tumor-MDSC [5]): elevated OCR

C[C@H](CCC(=O)NCCS(=O)(=O)O)[C@H]1CC[C@H]2[C@@H]3[C@@H](O)C[C@@H]4C[C@H](O)CC[C@]4(C)[C@H]3CC[C@]12C [TUDCA, Tauroursodeoxycholic acid]
anti-tumor actions in immunodeficient Rag1^KO mice (LLC tumors; LLC tumors, TUDCA, Rag1^KO vs wild type mice): not found
tumor growth (LLC tumors; established LLC tumors, TUDCA 250 mg/kg daily after day 6 vs vehicle): delayed tumor growth
tumor growth (B16 tumors; established B16 tumors, TUDCA 250 mg/kg daily after day 6 vs vehicle): delayed tumor growth
ability to block T cell proliferation (tumor-MDSC [1]; LLC tumor-MDSC pre-treated ex vivo with TUDCA for 24 hours): impaired the ability
ability of tumor-MDSC to block T cell proliferation (tumor-MDSC [1]; tumor-MDSC (1:1/4) from LLC or B16 bearing mice treated with TUDCA vs vehicle): lower ability to block T cell proliferation
ability to block T cell proliferation (murine BM-MDSC; murine BM-MDSC developed after exposing BM-iMC to TES, TUDCA in culture): impaired the ability
ability to block T cell proliferation (human BM-MDSC; human BM-MDSC conditioned with hTES, TUDCA in culture): impaired the ability
levels of Arginase I in tumor-MDSC (Arginase I): reduced levels of the inhibitory factor Arginase I
expression of phospho-PERK in tumor-MDSC (PERK; [8]): lower expression of phospho-PERK
expression of phospho-IRE1α in tumor-MDSC (IRE1α; [8]): lower expression of phospho-PERK and phospho-IRE 1α
expansion of recently activated CD69+ CD44+ CD8+ T cells in tumors (CD8+ TILs; B16-bearing mice treated with TUDCA): Higher expansion
EGSRNQDWL-H-2D^b-tetramer+ CD8+ T cells recognizing gp100 (CD8+ TILs; B16-bearing mice, single treatment): promoted the spontaneous expansion
recently activated CD69+ CD44+ CD8+ T cells (CD8+ TILs; B16-bearing mice, single treatment (anti-Gr1 experiment)): promoted the spontaneous expansion
expansion of recently activated CD69+ CD44+ CD8+ T cells in tumors (CD8+ TILs; LLC-bearing mice treated with TUDCA): Higher expansion
capacity of tumor-MDSC to prime OT-I T cell proliferation [6]: higher capacity to prime OT-I T cell proliferation
expression of SIINFEKL-bound H-2K^b in tumor-MDSC [6]: heightened expression

C/C=C(/C)C(=O)O[C@H]1C(C)=C2[C@H]([C@@H]1OC(=O)CCCCCCC)[C@@](C)(OC(C)=O)C[C@H](OC(=O)CCC)[C@@]1(O)[C@H]2OC(=O)[C@@]1(C)O [Thaps, Thapsigargin]
expansion of splenic-MDSC (LLC tumors; [9]): increased the expansion of splenic-MDSC
tumor progression (LLC tumors; [9]): promoted tumor progression
immunoregulatory potential of tumor-MDSC (tumor-MDSC [1]; tumor-MDSC from LLC-bearing mice treated with Thaps): elevated the immunoregulatory potential of tumor-MDSC
ability to block T cell proliferation (murine BM-MDSC; murine BM-MDSC, Thaps 200 nM, last 24 hours): enhanced ability to block T cell proliferation
ability to block T cell proliferation (human BM-MDSC; human BM-MDSC, Thaps, last 24 hours): enhanced ability to block T cell proliferation
total and phosphorylated PERK (PERK; [10]): upregulation of total and phosphorylated PERK
total and phosphorylated IRE1α (IRE1α; [10]): upregulation of total and phosphorylated PERK and IRE1α
